The source of these data is patent US6369101B1, “Therapeutic method to treat herpes virus infection” (Regents of the University of Minnesota, priority 1999, dated 2002).

The subject of data set [1] is HSV-1 strain F. In words: CPE inhibition, HSV-1 strain F in HEp-2 cells. Note: key: +++ = Complete cytopathic effect; ++ = Moderate cytopathic effect; + = Minimum cytopathic effect; − = No cytopathic effect. It is filed as cell-based, herpes simplex virus type 1. As to conditions: conc. per compound (ng/ml). The text has this: (§1) Human laryngeal epithelial carcinoma cells (HEp-2, ATCC, Rockville, Md.) were used for testing of antiviral compounds by cytopathic effect (CPE) inhibition and plaque reduction assay. Primary human foreskin fibroblast cells (HFF) obtained from Dr. E. R. Kern (Department of Pediatrics, University of Alabama Medical School, 309 Bevill Biomedical Research Building, 845 19th Street South, Birmingham, Ala., 35294-2170), were used for cytopathic effect (CPE) inhibition assay. HEp-2, African green monkey kidney cells (Vero, ATCC), HFF and primary rabbit kidney cells were used to determine the cytotoxic effect of compounds of formula I. These cells were propagated in Dulbeco's modified Eagle's medium (DMEM) (Sigma, USA) supplemented with 10% inactivated fetal calf serum (FCS), 25 mM HEPES, 0.2% sodium bicarbonate and 1% penicillin/-streptomycin at 37° C. in the presence of 5% CO2.
(§2) The antiviral activity of the test compounds was determined against HSV-1 strain F, HSV-2 strain G (ATCC), HSV-1 strain E-377 and HSV-2 strain MS (Dr. E. R. Kern, see above), CMV strain AD 169 (NIH), HCMV (NIH), MCMV (NIH), and VZV strain Ellen (NIH). Highly infective virus stocks of HSV-1 and HSV-2 were prepared by infecting a confluent monolayer of HEp-2 (ATCC) or HFF in 150 cm^2 plastic tissue culture flasks (Falcon, USA) at a multiplicity of infection of 0.5 in DMEM supplemented with 10% inactivated fetal calf serum and 1% penicillin/streptomycin at 37° C. in the presence of 5% CO2. The infected cells were disrupted through three freeze/thaw cycles, and viruses were clarified from large cell debris by low speed centrifugation at 3000 rpm for 10 minutes. The virus suspension was separated, aliquoted and stored at −80° C. until assayed or used for animal infection. The stock HSV-1 (E377) and HSV-2 (MS strain) contained 3.5×10^8 and 1.1×10^7 pfu/ml respectively.
(§3) Low passage HFF cells were seeded into 96-well tissue culture plates 24 hours prior to use at a cell concentration of 2.5×10^4 cells per ml in 0.2 ml of DMEM supplemented with 10% fetal calf serum. After 24 hours of incubation at 37° C. in the presence of 5% CO2, medium was removed and the test compounds were diluted two-fold in DMEM in the 96-well tissue culture plate containing monolayer. […] For both HSV-1 and HSV-2 assays, the virus concentration utilized was 1000 pfu/ml and for HCMV, MCMV, and VZV assay 2500 pfu/ml were used. The plates were then incubated at 37° C. in the presence of 5% CO2 for two to three days for HSV-1 and HSV-2, 10 days for VZV and 14 days for HCMV and MCMV. The virus induced cytopathic effect (CPE) was monitored microscopically every day. CPE of HSV-1 was recognized by cell rounding and clumping, while HSV-2 formed large syncytia along with rounding and clumping of cells. […] EC50s were estimated from graphical plots of percent CPE against the concentration of the test compounds. The EC50s for each compound are the mean of EC50s for three or more independent experiments. After three days of incubation period, media was aspirated and the cells stained with a 0.1% crystal violet solution for 30 minutes. The stain was then removed and the plates were rinsed with tap water, air dried and retained.

In data set [2] the test system is Human laryngeal epithelial carcinoma cells (HEp-2). In words: Cytotoxicity in HEp-2 cells. It counts as cell-based. The method, then: (§4) Human laryngeal epithelial carcinoma cells (HEp-2, ATCC, Rockville, Md.) were used for testing of antiviral compounds by cytopathic effect (CPE) inhibition and plaque reduction assay. […] HEp-2, African green monkey kidney cells (Vero, ATCC), HFF and primary rabbit kidney cells were used to determine the cytotoxic effect of compounds of formula I. These cells were propagated in Dulbeco's modified Eagle's medium (DMEM) (Sigma, USA) supplemented with 10% inactivated fetal calf serum (FCS), 25 mM HEPES, 0.2% sodium bicarbonate and 1% penicillin/-streptomycin at 37° C. in the presence of 5% CO2.
(§5) HFF, Vero and HEp-2 cells were seeded in 24-well tissue culture plates at a concentration of […] in DMEM containing 10% FCS and incubated for 24 hours at 37° C. in the presence of 5% CO2. To the monolayer of these cells 0.5, 1.0, 1.5 and 2.0 ml of solution of antiviral compounds were added in the respective wells in duplicate and the cells were then incubated in a 5% CO2 incubator at 37° C. for 72 hours. The cells were observed daily for any change in morphology. […] At the end of this time, the media-drug solution was removed and the cells washed. One ml of 0.25% trypsin was added to each well and incubated until the cells start to come off of the plate. The cells-media mixture was then pipetted up and down several times to resuspend the cells and 0.2 ml of the cell suspension was added to 9.8 ml of trypan blue and cells were counted using hemocytometer. Each sample was counted three times with three replicate wells per sample.

The subject of data set [3] is HSV-2 strain MS. In words: CPE inhibition assay, HSV-2 MS in human foreskin fibroblast cells. For Qualitative CPE at 2.0 ml dose HSV-2 MS: key: +++ = Complete cytopathic effect; ++ = Moderate cytopathic effect; + = Minimum cytopathic effect; − = No cytopathic effect. It is filed as cell-based, herpes simplex virus type 2. The protocol:
(§6) Stock solutions of the compounds used for the testing of antiviral activity against HSV-1 and HSV-2 were prepared in distilled water, filtered through 0.2 μm filter (Acrodisco®, Gelman Sciences, USA) and stored at room temperature until used.
as §1, §2, §3

Data set [4] has as its system HSV-2 strain G. In words: CPE inhibition, HSV-2 strain G in HEp-2 cells. Note: key: +++ = Complete cytopathic effect; ++ = Moderate cytopathic effect; + = Minimum cytopathic effect; − = No cytopathic effect. It counts as cell-based, herpes simplex virus type 2. The conditions noted are these: conc. per compound (ng/ml).
Text: as §1, §2, §3

A short description of data set [5]: Cell proliferation assay (cytotoxicity) in HFF cells. It is filed as cell-based, human. The conditions noted are these: primary human foreskin fibroblast (HFF) cells; Human foreskin fibroblast cells; reduces growth of uninfected cells by 50%. The method, then:
as §4, §5

The subject of data set [6] is Primary human foreskin fibroblast cells (HFF). The data set is described as above. It counts as cell-based. The method, then:
as §4, §5

For data set [7], the system named is HSV-1 strain E-377. In words: CPE inhibition assay, HSV-1 E377 in human foreskin fibroblast cells. For Qualitative CPE at 2.0 ml dose HSV-1 E377: key: +++ = Complete cytopathic effect; ++ = Moderate cytopathic effect; + = Minimum cytopathic effect; − = No cytopathic effect. It is filed as cell-based, herpes simplex virus type 1. The method, then: as §6, §1, §2, §3
Data set [8] can be described thus: CC50 in Daudi cells (Table 3). It is filed as cell-based. As to conditions: human.
Procedure: (§8) Raji is a Burkitt's lymphoma cell line containing 60 EBV genome/cell, and was the primary cell used for screening antiviral activity against EBV early antigen (EA) expression. Daudi is a low level producer that contains 152 EBV genome copies/cell. It spontaneously expresses EBV EA in 0.25-0.5% of the cells. It was used in follow-up studies to confirm activity. […] All cell lines were maintained in RPMI-1640 medium supplemented with 10% FCS, L-glutamine and 100 μg/ml gentamicin. The cultures were fed twice weekly and the cell concentration was adjusted to 3×10^5/ml. The cells were kept at 37° C. in humidified atmosphere with 5% CO2.
Data set [9] in a line: CC50 in HFF cells (Table 3). It counts as cell-based, human. The conditions noted are these: human, CC50. The method, then:
The cells were observed daily for any change in morphology. The rounding and lysis of cells were observed if the compound has cytotoxic effect. At the end of this time, the media-drug solution was removed and the cells washed. […] The cells-media mixture was then pipetted up and down several times to resuspend the cells and 0.2 ml of the cell suspension was added to 9.8 ml of trypan blue and cells were counted using hemocytometer. Each sample was counted three times with three replicate wells per sample.

Data set [10] relates to Epstein-Barr Virus. Kind of data set: VCA expression in EBV-infected Daudi cells.
Text: Raji is a Burkitt's lymphoma cell line containing 60 EBV genome/cell, and was the primary cell used for screening antiviral activity against EBV early antigen (EA) expression. […] It spontaneously expresses EBV EA in 0.25-0.5% of the cells. It was used in follow-up studies to confirm activity. These cell lines respond to superinfection by EBV by expressing EA-diffuse component EA (D), EA restricted component EA (R), and viral capsid antigen (VCA). […] The cultures were fed twice weekly and the cell concentration was adjusted to 3×10^5/ml. The cells were kept at 37° C. in humidified atmosphere with 5% CO2.
Cells were infected with the P3HR-1 strain of HBV and the test compound was added after adsorption (45 minutes at 37° C.) and washing of the cell cultures. The cultures were incubated for two days in complete medium to allow viral gene expression. Following the 48 hours of incubation, the numbers of cells of each sample was counted and smears were made. Monoclonal antibodies to the different EA components and VCA were then added to the cells and then incubated and washed. This is followed by a fluorescein conjugated rabbit anti-mouse IgG antibody, and the number of fluorescence cells in the smear were counted. The total number of cells in the cultures positive for EA or VCA were then calculated and compared.
Data set [11] relates to Varicella-Zoster Virus. In words: CPE inhibition in stationary cells (visual), VZV in HFF cells. It counts as cell-based.
Data set [12] concerns Daudi cells. In words: CC50 in Daudi cells (Table 3). It is filed as cell-based.
Procedure: as §8
Data set [13] concerns HSV-2 (strain G). In words: Plaque reduction assay, HSV-2 strain G in HEp-2 cells. As to conditions: conc. per compound (ng/ml) (Acyclovir 250), HSV-2 virus control 47. It counts as cell-based, herpes simplex virus type 2. The method, then: (§7) HEp-2 cells were grown to monolayer in 24 well tissue culture plates in DMEM containing 10% fetal calf serum at 37° C. for 24-36 hours in the presence of 5% CO2. The monolayer of HEp-2 cells was infected with 0.1 ml of HSV- 1 (strain F) or HSV-2 (strain G) containing 100 pfu. The viruses were allowed to adsorb for 1 hour at 37° C. in the presence of 5% CO2. All wells containing virus infected cells except virus control were overlaid with 0.9 ml of DMEM and 1 ml of test compound. The virus control and cell control received DMEM only. All microtiter plates were incubated at 37° C. in the presence of 5% CO2 and observed twice daily for 72 hours for viral CPE. At the end of the experiment, plates were stained with 0.1% crystal violet and the results were quantified by counting plaque forming units.

For data set [14], the system named is Human Cytomegalovirus. Kind of data set: CPE inhibition in stationary cells (visual), HCMV in HFF cells. It counts as cell-based. The conditions noted are these: test compounds in DMSO.
Data set [15] deals with HSV-1 (strain F). Kind of data set: Plaque reduction assay, HSV-1 strain F in HEp-2 cells. It counts as cell-based, herpes simplex virus type 1. As to conditions: conc. per compound as in column Conc. (ng/ml), HSV-1 virus control 5. The method, then:
as §7
Background: Plaque reduction counts the foci of infection that form in a cell layer.

The mark [16] stands for this setting: HFF cells, solution conc. per compound (ng/ml) (Acyclovir 250), 2.0 ml dose.

SMILES strings stand for the structures. In brackets after ≈: the same amount, converted by molar mass. Where two headings read alike, the source gives them in different places.

With `CC1(C)CCC23CC[C@]4(C)C(CCC5[C@@]6(C)C=C(O)C(=O)C(C)(C)C6CC[C@]54C)C2C1OC3` (some centres unmarked) [Allobetulon-1,2-ene-2-ol, Allobetulon 1,2-ene-2-ol.], the melting point (commonly the temperature of the solid-liquid transition) fell in the range of 236.8 to 238.8 °C. Also, in data set [1], the “Cytopathic Effect (CPE) Inhibition HSV-1 Strain F” value is reported as “++”. Further, the “Cell Cytotoxicity” value in [2] (HEp-2 cells, conc. per compound (ng/ml)) is “−”. The “Qualitative CPE at 2.0 ml dose HSV-2 MS” value in data set [3] (setting [16]) is “+++”. The EC50 (usually the concentration that produces a half-maximal response) in data set [3] (Human alphaherpesvirus 2, HFF, CPE inhibition in HFF cells, read-out: EC50 HSV-2 MS) came out at 0.165 µg/mL (≈ 0.363 µM). In addition, the “Cytopathic Effect (CPE) Inhibition HSV-2 Strain G” value in [4] was “++”. Besides, in data set [5], half-maximal cytotoxicity (CC50 at 72 h) was put at 0.22 µg/mL (≈ 0.484 µM). Also, the “Qualitative Cytotoxic Effect at 2.0 ml dose” value in data set [6] (setting [16]) is “−”. Further, the “Qualitative CPE at 2.0 ml dose HSV-1 E377” value in data set [7] (setting [16]) is recorded as “+++”. Moreover, the EC50 in data set [7] (Human alphaherpesvirus 1, HFF, CPE inhibition in HFF cells, read-out: EC50 HSV-1 E377) came to 0.22 µg/mL (≈ 0.484 µM).

For the compound `C=C(C)[C@@H]1CC[C@]2(COP(=O)(O)O)CC[C@]3(C)[C@H](CC[C@@H]4[C@@]5(C)CC[C@H](OP(=O)(O)O)C(C)(C)[C@@H]5CC[C@]43C)[C@@H]12` [Betulin diphosphate], in [8], the CC50 – broadly, the concentration at which the toxic effect on the cells reaches its halfway point – is above 0.05 µg/mL. In data set [9], this compound gave a CC50 at 72 h above 0.1 µg/mL. Moreover, the EC50 in data set [10] (human gammaherpesvirus 4, Daudi) is 0.00039 µg/mL; in data set [11] (Human alphaherpesvirus 3, test compounds in DMSO, read-out: EC50), above 0.1 µg/mL.

With `C[C@H]1[C@H](C)CC[C@]2(CO)CC[C@]3(C)C(=CC[C@@H]4[C@@]5(C)CC[C@H](O)C(C)(C)[C@@H]5CC[C@]43C)[C@H]12` [Uvaol], the half-maximal cytotoxic concentration (CC50) came out at 0.0443 µg/mL (≈ 0.1 µM) in [12] and 0.125 µg/mL (≈ 0.282 µM) in data set [6]. Moreover, the “Cytopathic Effect (CPE) Inhibition HSV-1 Strain F” value in data set [1] is listed as “++”. In addition, in data set [2], the “Cell Cytotoxicity” value is “−”. In addition, in data set [13], the “Plaque Reduction Assay Average pfu/10^5 Cells HSV-2 Strain G” value is 28 pfu/10^5 Cells. The “EC50 HSV-2 MS” value in [3] (CPE inhibition in HFF cells) was above 0.25 µg/mL. Also, the EC50 in data set [10] (Epstein-Barr Virus, Daudi cells, VCA, test compounds in DMSO) was 0.00031 µg/mL (≈ 0.0007 µM); in data set [11] (test compounds in DMSO), above 0.02 µg/mL; in data set [14] it was above 0.1 µg/mL. Further, the “Cytopathic Effect (CPE) Inhibition HSV-2 Strain G” value in data set [4] was “++”. Moreover, the “EC50 HSV-1 E377” value in data set [7] (CPE inhibition in HFF cells) was above 0.25 µg/mL. In addition, the “Plaque Reduction Assay Average pfu/10^5 Cells HSV-1 Strain F” value in data set [15] came to 0 pfu/10^5 Cells.
